In ChEMBL document CHEMBL5291721, “A preclinical secondary pharmacology resource illuminates target-adverse drug reaction associations of marketed drugs” (Nat Commun, 2023):

How the values were obtained:
Cannabinoid receptor 1 [1] = molecular target: T1, Cannabinoid receptor 1 (Homo sapiens, UniProt P21554); assay type: functional, cell-based
[2] = molecular target: T2, 5-hydroxytryptamine receptor 3A (Homo sapiens, UniProt P46098); assay type: functional
T2 sequence (P46098 whole entry): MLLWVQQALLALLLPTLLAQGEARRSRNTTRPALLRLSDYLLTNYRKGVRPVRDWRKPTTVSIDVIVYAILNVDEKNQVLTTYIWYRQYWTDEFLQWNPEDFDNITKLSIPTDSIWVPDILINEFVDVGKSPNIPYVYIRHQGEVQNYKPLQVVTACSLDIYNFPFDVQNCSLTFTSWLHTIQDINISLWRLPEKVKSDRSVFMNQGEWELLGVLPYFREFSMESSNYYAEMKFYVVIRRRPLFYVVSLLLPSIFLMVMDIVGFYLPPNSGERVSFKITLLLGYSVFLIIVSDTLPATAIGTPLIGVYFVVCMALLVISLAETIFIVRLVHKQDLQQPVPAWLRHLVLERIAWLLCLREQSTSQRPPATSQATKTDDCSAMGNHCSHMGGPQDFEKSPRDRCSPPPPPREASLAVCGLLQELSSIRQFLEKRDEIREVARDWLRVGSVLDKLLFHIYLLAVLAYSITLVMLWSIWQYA

[3] = molecular target: T3, Alpha-2A adrenergic receptor (Homo sapiens, UniProt P08913); assay type: functional, cell-based
T3 sequence (P08913 whole entry): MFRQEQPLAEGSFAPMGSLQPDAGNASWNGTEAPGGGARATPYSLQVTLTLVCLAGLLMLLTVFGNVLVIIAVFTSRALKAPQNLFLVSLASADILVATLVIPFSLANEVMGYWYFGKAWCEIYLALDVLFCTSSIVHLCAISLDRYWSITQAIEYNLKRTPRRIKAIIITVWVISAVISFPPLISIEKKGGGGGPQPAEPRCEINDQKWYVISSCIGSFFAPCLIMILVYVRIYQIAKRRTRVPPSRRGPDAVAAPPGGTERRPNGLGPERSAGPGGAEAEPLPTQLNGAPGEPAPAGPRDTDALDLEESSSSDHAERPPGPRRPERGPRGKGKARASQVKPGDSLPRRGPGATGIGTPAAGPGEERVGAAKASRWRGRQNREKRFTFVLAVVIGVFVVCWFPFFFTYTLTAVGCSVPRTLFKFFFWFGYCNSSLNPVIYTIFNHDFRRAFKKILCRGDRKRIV

[4] = molecular target: Gamma-aminobutyric acid receptor subunit alpha-1 (Rattus norvegicus, UniProt P62813); assay type: functional
Chain of Gamma-aminobutyric acid receptor subunit alpha-1 (P62813 whole entry): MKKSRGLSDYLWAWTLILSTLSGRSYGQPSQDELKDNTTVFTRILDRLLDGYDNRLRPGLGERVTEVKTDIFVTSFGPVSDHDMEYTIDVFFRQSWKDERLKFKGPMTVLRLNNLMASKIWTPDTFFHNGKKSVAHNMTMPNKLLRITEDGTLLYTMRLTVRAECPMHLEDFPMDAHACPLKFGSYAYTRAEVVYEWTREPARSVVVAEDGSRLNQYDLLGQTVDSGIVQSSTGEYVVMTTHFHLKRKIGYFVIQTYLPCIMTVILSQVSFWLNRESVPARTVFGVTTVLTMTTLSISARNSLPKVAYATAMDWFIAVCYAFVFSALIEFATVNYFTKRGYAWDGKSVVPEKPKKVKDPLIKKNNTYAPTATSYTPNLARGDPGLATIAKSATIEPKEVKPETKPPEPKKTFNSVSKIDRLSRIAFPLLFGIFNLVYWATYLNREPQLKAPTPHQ

Cannabinoid receptor 1 [5] = molecular target: T1, Cannabinoid receptor 1; assay type: functional, cell-based; remark: listed apart in the source
[6] = molecular target: Beta-1 adrenergic receptor (Homo sapiens, UniProt P08588); assay type: functional
Chain of Beta-1 adrenergic receptor (P08588 whole entry): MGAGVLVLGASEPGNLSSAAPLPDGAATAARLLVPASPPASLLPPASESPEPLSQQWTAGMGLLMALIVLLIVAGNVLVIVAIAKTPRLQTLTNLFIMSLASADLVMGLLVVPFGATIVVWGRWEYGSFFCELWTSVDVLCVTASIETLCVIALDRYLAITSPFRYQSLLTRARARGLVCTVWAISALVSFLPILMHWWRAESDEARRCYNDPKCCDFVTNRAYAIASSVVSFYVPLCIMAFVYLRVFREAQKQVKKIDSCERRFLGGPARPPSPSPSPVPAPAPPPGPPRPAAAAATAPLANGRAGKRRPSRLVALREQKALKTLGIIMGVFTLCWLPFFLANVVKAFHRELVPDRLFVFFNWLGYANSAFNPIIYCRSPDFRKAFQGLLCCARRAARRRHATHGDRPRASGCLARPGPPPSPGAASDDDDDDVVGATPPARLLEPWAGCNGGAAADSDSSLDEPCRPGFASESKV

[7] = molecular target: Neuronal acetylcholine receptor subunit alpha-4 (Homo sapiens, UniProt P43681)
Chain of Neuronal acetylcholine receptor subunit alpha-4 (P43681 whole entry): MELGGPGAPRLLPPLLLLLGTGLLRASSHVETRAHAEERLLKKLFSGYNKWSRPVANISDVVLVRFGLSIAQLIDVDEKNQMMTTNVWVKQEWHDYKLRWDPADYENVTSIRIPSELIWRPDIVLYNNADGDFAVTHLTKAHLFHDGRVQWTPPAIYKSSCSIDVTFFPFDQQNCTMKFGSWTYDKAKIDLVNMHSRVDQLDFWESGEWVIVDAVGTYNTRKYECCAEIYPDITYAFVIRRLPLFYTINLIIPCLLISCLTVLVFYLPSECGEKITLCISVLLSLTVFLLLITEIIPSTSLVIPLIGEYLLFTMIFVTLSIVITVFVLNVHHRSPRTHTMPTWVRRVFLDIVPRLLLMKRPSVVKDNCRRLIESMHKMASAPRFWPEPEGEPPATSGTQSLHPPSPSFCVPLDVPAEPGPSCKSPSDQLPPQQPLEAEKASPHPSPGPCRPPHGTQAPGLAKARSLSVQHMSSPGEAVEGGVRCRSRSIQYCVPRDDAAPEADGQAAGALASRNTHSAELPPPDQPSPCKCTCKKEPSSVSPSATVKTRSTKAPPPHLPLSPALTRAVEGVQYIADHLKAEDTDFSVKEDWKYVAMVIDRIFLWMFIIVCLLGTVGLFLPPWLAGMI

Progesterone receptor = molecular target: T4, Progesterone receptor (Homo sapiens, UniProt P06401)
T4 sequence (P06401 whole entry): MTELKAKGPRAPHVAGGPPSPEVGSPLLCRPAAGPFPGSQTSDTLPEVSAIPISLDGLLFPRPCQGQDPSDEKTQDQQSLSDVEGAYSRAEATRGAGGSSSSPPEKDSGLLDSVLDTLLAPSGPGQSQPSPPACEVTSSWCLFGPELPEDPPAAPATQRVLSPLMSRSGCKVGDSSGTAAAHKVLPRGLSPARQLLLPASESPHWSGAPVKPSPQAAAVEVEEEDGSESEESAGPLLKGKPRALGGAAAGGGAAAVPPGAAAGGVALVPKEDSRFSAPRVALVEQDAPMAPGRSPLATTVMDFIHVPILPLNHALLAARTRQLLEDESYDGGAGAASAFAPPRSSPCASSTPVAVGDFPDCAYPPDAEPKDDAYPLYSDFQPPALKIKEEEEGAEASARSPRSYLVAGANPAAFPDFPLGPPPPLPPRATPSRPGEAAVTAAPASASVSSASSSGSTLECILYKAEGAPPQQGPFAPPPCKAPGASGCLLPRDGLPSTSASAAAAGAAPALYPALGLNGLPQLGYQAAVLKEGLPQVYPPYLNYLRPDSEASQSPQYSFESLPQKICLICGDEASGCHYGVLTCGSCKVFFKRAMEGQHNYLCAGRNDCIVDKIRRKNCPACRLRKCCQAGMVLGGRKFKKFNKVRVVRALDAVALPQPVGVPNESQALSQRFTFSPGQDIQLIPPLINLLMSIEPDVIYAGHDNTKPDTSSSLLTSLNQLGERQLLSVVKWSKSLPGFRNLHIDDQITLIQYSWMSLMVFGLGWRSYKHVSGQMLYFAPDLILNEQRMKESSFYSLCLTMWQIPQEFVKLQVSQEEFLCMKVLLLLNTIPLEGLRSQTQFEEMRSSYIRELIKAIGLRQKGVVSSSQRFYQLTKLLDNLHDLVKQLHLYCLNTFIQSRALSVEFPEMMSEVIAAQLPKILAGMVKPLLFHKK

[8] = molecular target: 3',5'-cyclic-AMP phosphodiesterase 4A (Homo sapiens, UniProt P27815); assay type: functional
Chain of 3',5'-cyclic-AMP phosphodiesterase 4A (P27815 whole entry): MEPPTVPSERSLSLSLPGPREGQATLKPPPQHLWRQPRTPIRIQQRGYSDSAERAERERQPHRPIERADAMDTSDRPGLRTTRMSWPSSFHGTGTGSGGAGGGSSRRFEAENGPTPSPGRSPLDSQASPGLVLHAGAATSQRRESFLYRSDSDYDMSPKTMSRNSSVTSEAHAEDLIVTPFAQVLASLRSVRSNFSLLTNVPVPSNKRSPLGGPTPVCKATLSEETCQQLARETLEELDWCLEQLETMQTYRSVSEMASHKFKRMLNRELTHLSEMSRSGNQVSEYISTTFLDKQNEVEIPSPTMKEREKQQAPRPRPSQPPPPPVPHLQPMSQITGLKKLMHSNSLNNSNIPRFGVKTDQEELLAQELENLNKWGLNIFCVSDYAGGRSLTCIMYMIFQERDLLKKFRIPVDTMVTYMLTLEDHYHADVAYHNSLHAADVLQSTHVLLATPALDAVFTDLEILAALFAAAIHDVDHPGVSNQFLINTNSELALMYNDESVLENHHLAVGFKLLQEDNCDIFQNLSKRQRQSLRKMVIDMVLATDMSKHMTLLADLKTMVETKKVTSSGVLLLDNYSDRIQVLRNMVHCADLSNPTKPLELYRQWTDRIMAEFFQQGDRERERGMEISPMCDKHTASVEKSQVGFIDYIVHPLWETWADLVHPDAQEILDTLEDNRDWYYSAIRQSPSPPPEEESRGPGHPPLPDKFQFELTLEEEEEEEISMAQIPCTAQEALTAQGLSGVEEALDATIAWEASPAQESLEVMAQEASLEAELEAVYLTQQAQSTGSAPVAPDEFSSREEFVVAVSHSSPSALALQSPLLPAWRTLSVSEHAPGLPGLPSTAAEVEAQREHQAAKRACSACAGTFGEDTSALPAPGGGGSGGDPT

[9] = molecular target: cGMP-inhibited 3',5'-cyclic phosphodiesterase 3A (Homo sapiens, UniProt Q14432); assay type: functional
Chain of cGMP-inhibited 3',5'-cyclic phosphodiesterase 3A (Q14432 whole entry): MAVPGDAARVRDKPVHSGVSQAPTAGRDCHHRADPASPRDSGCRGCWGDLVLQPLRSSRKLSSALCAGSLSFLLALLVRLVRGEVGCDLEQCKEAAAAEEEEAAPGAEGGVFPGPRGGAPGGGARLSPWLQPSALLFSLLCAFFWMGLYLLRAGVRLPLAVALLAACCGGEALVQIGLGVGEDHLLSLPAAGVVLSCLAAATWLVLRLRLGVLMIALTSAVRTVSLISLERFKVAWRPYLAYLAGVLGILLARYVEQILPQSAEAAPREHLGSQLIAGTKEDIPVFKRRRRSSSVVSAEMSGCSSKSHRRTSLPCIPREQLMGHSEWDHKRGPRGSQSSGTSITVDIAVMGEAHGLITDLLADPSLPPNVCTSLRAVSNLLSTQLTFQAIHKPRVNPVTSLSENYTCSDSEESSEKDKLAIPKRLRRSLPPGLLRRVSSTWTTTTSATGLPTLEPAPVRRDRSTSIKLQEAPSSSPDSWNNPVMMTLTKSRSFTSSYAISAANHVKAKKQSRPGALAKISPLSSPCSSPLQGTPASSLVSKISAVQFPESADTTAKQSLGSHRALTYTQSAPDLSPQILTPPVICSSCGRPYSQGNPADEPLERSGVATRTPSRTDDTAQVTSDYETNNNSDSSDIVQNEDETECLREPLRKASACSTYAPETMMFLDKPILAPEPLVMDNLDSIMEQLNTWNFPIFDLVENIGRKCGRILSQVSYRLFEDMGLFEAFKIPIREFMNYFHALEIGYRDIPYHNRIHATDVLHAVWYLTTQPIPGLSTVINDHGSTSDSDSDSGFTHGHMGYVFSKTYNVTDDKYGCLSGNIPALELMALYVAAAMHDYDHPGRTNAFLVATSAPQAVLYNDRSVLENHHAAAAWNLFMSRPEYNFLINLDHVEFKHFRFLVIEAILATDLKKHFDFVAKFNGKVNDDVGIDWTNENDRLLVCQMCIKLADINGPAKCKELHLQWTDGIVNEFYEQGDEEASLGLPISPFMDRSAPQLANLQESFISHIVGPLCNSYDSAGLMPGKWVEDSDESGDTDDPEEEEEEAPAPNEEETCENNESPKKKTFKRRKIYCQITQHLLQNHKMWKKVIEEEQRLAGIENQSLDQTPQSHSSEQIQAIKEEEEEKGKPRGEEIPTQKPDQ

[10] = molecular target: T3, Alpha-2A adrenergic receptor
[11] = molecular target: Prostaglandin G/H synthase 1 (Homo sapiens, UniProt P23219); assay type: functional
Chain of Prostaglandin G/H synthase 1 (P23219 whole entry): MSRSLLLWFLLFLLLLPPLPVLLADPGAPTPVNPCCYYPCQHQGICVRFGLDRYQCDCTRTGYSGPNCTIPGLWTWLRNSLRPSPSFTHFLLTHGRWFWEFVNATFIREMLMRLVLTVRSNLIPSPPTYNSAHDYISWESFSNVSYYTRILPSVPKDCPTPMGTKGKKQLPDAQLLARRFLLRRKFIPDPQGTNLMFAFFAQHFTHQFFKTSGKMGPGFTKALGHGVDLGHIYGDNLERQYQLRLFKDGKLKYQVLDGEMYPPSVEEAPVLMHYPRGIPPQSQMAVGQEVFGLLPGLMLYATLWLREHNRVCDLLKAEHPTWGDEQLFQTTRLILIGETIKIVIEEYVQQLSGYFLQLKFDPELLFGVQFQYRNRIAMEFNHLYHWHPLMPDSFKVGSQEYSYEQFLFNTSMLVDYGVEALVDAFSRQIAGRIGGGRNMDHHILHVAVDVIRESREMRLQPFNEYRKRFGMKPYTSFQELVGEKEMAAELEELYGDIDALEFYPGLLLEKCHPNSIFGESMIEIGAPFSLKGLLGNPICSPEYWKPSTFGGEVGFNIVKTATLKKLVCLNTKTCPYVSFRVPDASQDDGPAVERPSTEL
Note: assay procedure not described here.

T1 sequence (P21554 whole entry): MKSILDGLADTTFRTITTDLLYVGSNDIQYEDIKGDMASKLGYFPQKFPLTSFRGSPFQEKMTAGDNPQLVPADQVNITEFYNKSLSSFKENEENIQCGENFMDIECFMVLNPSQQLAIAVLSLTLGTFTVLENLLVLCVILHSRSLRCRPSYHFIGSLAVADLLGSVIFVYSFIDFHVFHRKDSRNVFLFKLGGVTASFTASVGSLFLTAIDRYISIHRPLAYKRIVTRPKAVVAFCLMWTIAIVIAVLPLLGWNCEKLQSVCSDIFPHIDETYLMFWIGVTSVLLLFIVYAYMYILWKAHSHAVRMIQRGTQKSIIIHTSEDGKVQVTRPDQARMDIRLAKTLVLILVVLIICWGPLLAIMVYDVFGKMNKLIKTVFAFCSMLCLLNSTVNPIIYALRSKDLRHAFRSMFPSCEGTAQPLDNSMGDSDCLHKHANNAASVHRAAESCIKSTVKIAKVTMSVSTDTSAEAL

Row | Structure (SMILES) | AC50 (Cannabinoid receptor 1 [1]) [µM] | AC50 [2] [µM] | AC50 [3] [µM] | AC50 [4] [µM] | AC50 (Cannabinoid receptor 1 [5]) [µM] | AC50 [6] [µM] | AC50 [7] [µM] | AC50 (Progesterone receptor) [µM] | AC50 [8] [µM] | AC50 [9] [µM] | AC50 [10] [µM] | AC50 [11] [µM]
1 | C[C@@H](NCCCc1cccc(C(F)(F)F)c1)c1cccc2ccccc12 | > 30 | > 30 | > 30 | > 30 | > 30 | 8.8 | > 1 | – | – | – | – | –
2 | COc1ccc(CC2c3cc(OC)c(OC)cc3CC[N+]2(C)CCC(=O)OCCCCCOC(=O)CC[N+]2(C)CCc3cc(OC)c(OC)cc3C2Cc2ccc(OC)c(OC)c2)cc1OC (stereo not drawn) | – | > 30 | 3.6 | > 30 | – | > 30 | 3.63 | – | – | – | – | –
3 | O=C(O)COc1ccc(C(=O)c2cccs2)c(Cl)c1Cl | – | – | – | – | – | – | – | > 30 | > 30 | > 30 | > 30 | > 30
4 | COc1c2ccoc2cc2oc(=O)ccc12 [BERGAPTEN] | – | – | – | – | – | – | – | 12.4 | > 30 | > 30 | > 30 | > 30
5 | CNC(=O)Oc1cccc2ccccc12 [CARBARIL] | – | – | – | – | – | – | – | 14.3 | > 30 | > 30 | > 30 | 3.71
6 | COc1ccccc1OCCNCC(O)COc1cccc2[nH]c3ccccc3c12 (stereo not drawn) [CARVEDILOL] | > 30 | > 10 | 3.09 | > 10 | > 30 | – | > 30 | – | – | – | – | –
7 | CC[C@H](C)C[C@H](C)CCCCCCCCC(=O)N[C@H]1C[C@@H](O)[C@@H](NCCN)NC(=O)[C@@H]2[C@@H](O)CCN2C(=O)[C@H]([C@H](O)CCN)NC(=O)[C@H]([C@H](O)[C@@H](O)c2ccc(O)cc2)NC(=O)[C@@H]2C[C@@H](O)CN2C(=O)[C@H]([C@@H](C)O)NC1=O [CASPOFUNGIN] | – | – | – | – | – | – | – | 5.7 | > 30 | > 30 | > 30 | –
8 | C/C=C/C/C=C/CCC(=O)[C@H]1O[C@H]1C(N)=O [CERULENIN] | – | – | – | – | – | – | – | > 30 | > 30 | > 30 | > 30 | > 30
9 | CN(C)[C@@H]1C(O)=C(C(N)=O)C(=O)[C@@]2(O)C(O)=C3C(=O)c4c(O)ccc(Cl)c4[C@@](C)(O)[C@H]3C[C@@H]12 [CHLORTETRACYCLINE] | – | – | – | – | – | – | – | > 30 | – | > 30 | > 30 | > 30
10 | O=C1CCc2cc(OCCCCc3nnnn3C3CCCCC3)ccc2N1 [CILOSTAZOL] | > 30 | > 30 | > 30 | > 30 | > 30 | > 30 | > 30 | – | – | – | – | –
11 | N[C@@H](CS)C(=O)O [CYSTEINE] | – | – | – | – | – | – | – | > 30 | > 30 | > 30 | > 30 | 4.66
12 | C[C@H]1O[C@@H](n2cc(F)c(=O)[nH]c2=O)[C@H](O)[C@@H]1O [DOXIFLURIDINE] | – | – | – | – | – | – | – | > 30 | > 30 | > 30 | > 30 | > 30
13 | OC[C@H]1O[C@@H](c2ccc(Cl)c(Cc3ccc(O[C@H]4CCOC4)cc3)c2)[C@H](O)[C@@H](O)[C@@H]1O [EMPAGLIFLOZIN] | – | – | – | – | – | – | – | > 30 | > 30 | > 30 | > 30 | > 30
14 | CC(C)(O)CNc1nc(Nc2ccnc(C(F)(F)F)c2)nc(-c2cccc(C(F)(F)F)n2)n1 [ENASIDENIB] | – | – | – | – | – | – | – | > 30 | > 30 | > 30 | > 30 | 14.1
15 | CN1C[C@H](C(=O)N[C@]2(C)O[C@@]3(O)[C@@H]4CCCN4C(=O)[C@H](Cc4ccccc4)N3C2=O)C=C2c3cccc4[nH]cc(c34)C[C@H]21 [ERGOTAMINE] | > 30 | > 30 | 0.3 | > 30 | > 30 | > 30 | > 30 | – | – | – | – | –
16 | CCc1nc(C(N)=O)c(Nc2ccc(N3CCC(N4CCN(C)CC4)CC3)c(OC)c2)nc1NC1CCOCC1 [GILTERITINIB] | – | – | – | – | – | – | – | > 30 | 2.44 | > 30 | > 30 | > 30
17 | O=C(O)CO [GLYCOLIC ACID] | – | – | – | – | – | – | – | > 30 | > 30 | > 30 | > 30 | > 30
18 | CC[C@H](c1ccc(O)cc1)[C@@H](CC)c1ccc(O)cc1 [HEXESTROL] | – | – | – | – | – | – | – | 1.85 | > 30 | > 30 | > 30 | > 30
19 | O=C1/C(=C2\Nc3ccc(S(=O)(=O)O)cc3C2=O)Nc2ccc(S(=O)(=O)O)cc21 [INDIGOTINDISULFONATE] | – | – | – | – | – | – | – | > 30 | > 30 | > 30 | > 30 | 21.5
20 | OC[C@H]1O[C@@H](c2ccc(F)c(Cc3cc4ccccc4s3)c2)[C@H](O)[C@@H](O)[C@@H]1O [IPRAGLIFLOZIN] | – | – | – | – | – | – | – | > 30 | > 30 | > 30 | > 30 | > 30
21 | CC(C)C[C@H](NC(=O)CNC(=O)c1cc(Cl)ccc1Cl)B(O)O [IXAZOMIB] | – | – | – | – | – | – | – | > 30 | 29.9 | > 30 | > 30 | > 30
22 | CC(CCc1ccccc1)NCC(O)c1ccc(O)c(C(N)=O)c1 (stereo not drawn) [LABETALOL] | – | – | – | – | – | – | – | > 30 | > 30 | > 30 | – | > 30
23 | C[C@@H]1C[C@H]2[C@@H]3CCC4=CC(=O)C=C[C@]4(C)[C@@]3(Cl)[C@@H](O)C[C@]2(C)[C@@]1(OC(=O)c1ccco1)C(=O)CCl [MOMETASONE FUROATE] | – | – | – | – | – | – | – | – | > 30 | > 30 | > 30 | > 30
24 | N#Cc1ccc2c(c1)N(CCCN1CCC(O)CC1)c1ccccc1S2 [PERICIAZINE] | – | – | – | – | – | – | – | 22.1 | > 30 | > 30 | – | 21.5
25 | C=C[C@H]1C[N@@]2CC[C@H]1C[C@@H]2[C@@H](O)c1ccnc2ccc(OC)cc12 [QUINIDINE] | > 30 | > 30 | 12 | – | > 30 | – | – | – | – | – | – | –
26 | CN(C)CCc1c[nH]c2ccc(Cn3cncn3)cc12 [RIZATRIPTAN] | > 30 | > 30 | > 30 | > 30 | > 30 | > 10 | > 10 | – | – | – | – | –
27 | CCN(CC)CCNC(=O)c1c(C)[nH]c(/C=C2\C(=O)Nc3ccc(F)cc32)c1C [SUNITINIB] | > 30 | – | 24 | > 30 | > 30 | – | 7.3 | – | – | – | – | –
28 | CC(C)(C)NCC(O)c1cc(O)cc(O)c1 (stereo not drawn) [TERBUTALINE] | – | – | – | – | – | – | > 30 | – | – | – | – | –
29 | CC1=C(/C=C/C(C)=C/C=C/C(C)=C/C(=O)O)C(C)(C)CCC1 [TRETINOIN] | – | – | – | – | – | – | – | 4.24 | 1.27 | > 30 | > 30 | –
